Results on 2 molecules are retold here after patent publication US11371055B2, “Herbicide resistance genes” (CORTEVA AGRISCIENCE LLC, priority 2005, dated 2022).

The subject of assay [1] is Untransformed Control corn. Kind of assay: Herbicide tolerance of untransformed control corn in the F1 stack test. The assay is classed as in vivo, Zea mays. The note with it: 1120 g ae/ha 2,4-D DMA. An excerpt:
AAD-12 (v1) (pDAB4101) and elite Roundup Ready inbred (BE1146RR) were reciprocally crossed and F1 seed was collected. The seed from two F1 lines were planted and treated with 70 g ae/ha imazethapyr at the V2 stage to eliminate nulls. To the surviving plants, reps were separated and either treated with 1120 g ae/ha 2,4-D DMA+70 g ae/ha imazethapyr (to confirm presence of AHAS gene) or 1120 g ae/ha 2,4-D DMA+1680 g ae/ha glyphosate (to confirm the presence of the Round Up Ready gene) in a track sprayer calibrated to 187 L/ha. Plants were graded 3 and 16 DAT.

Assay [2] concerns untransformed commercial rice cultivar Lamont. Kind of assay: 2,4-D DMA tolerance, untransformed rice control. The assay is classed as in vivo, Oryza sativa. The note with it: Lemont Untransformed Control. An excerpt: The following T1 AAD-12 (v1) single segregating locus lines were planted into 3-inch pots containing Metro Mix media: pDAB4101(20)003 and pDAB4101(27)002. At 2-3 leaf stage were sprayed with 140 g ae/ha imazethapyr. Nulls were eliminated and individuals were sprayed at V3-V4 stage in the track sprayer set to 187 L/ha at 1120, 2240 or 4480 g ac/ha 2,4-D DMA (2×, 4×, and 8× typical commercial use rates, respectively). Plants were graded at 7 and 14 DAT and compared to untransformed commercial rice cultivar. ‘Lamont,’ as negative control plants.

In assay [3] the test system is R-dichlorprop habituated BY2 tobacco cells. Kind of assay: 2,4-D dose response of tobacco cell suspension (BY2). The note with it: LSBY2C medium. It counts as cell-based. Here is the method:
A dose response study was conducted with both the R-dichlorprop habituated PHL cells and the R-dichlorprop habituated BY2 cells where R-dichlorprop was substituted directly for 2,4-D in culture media. Though the focus was on PHL, a dose response was also done with BY2 in case of possible future studies, as well as to help predict the dose response for PHL. For the dichlorprop habituated PHL dose response, the levels of 2,4-D used (on LSBY2C medium with R-dichlorprop) were 0 (the control), 1, 2, 3, 5, 8, 10, 12, 15, 18, 20, 40, 60, 80, […] mg/L 2,4-D. There were four replications per concentration. For the R-dichlorprop habituated BY2 dose response, the levels of 2,4-D used (on LSBY2C medium) were 0 (the control), 1, 2, 3, 5, 8, 10, 20, 30, 40, mg/L 2,4-D.

In assay [4] the test system is AAD-12 (v1)-containing T0 soybean plants. Kind of assay: 2,4-D spray application on T0 soybean. It counts as in vivo, Glycine max. An excerpt:
Plants that are transferred to the greenhouse can be assayed for the presence of an active PAT gene further with a non-destructive manner by painting a section of leaf of the T0 primary transformant, or progeny thereof, with a glufosinate solution [0.05-2% v/v Liberty Herbicide, preferably 0.25-1.0% (v/v),=500-2000 ppm glufosinate, Bayer Crop Science]. Depending on the concentration used, assessment for glufosinate injury can be made 1-7 days after treatment. Plants can also be tested for 2,4-D tolerance in a non-destructive manner by selective application of a 2,4-D solution in water (0.25-1% v/v commercial 2,4-D dimethylamine salt formulation, preferably 0.5% v/v=2280 ppm 2,4-D ae) to the terminal leaflet of the newly expanding trifoliolate one or two, preferably two, nodes below the youngest emerging trifolioate. This assay allows assessment of 2,4-D sensitive plants 6 hours to several days after application by assessment of leaf flipping or rotation >90 degrees from the plane of the adjacent leaflets. Plants tolerant to 2,4-D will not respond to 2,4-D. To plants will be allowed to self fertilize in the greenhouse to give rise to T1 seed. T1 plants (and to the extent enough T0 plant clones are produced) will be sprayed with a range of herbicide doses to determine the level of herbicide protection afforded by AAD-12 (v1) and PAT genes in transgenic soybean. Rates of 2,4-D used on T0 plants will typically comprise one or two selective rates in the range of 100-1120 g ae/ha using a track sprayer as previously described. T1 plants will be treated with a wider herbicide dose ranging from 50-3200 g ae/ha 2,4-D. Likewise, T0 and T1 plants can be screened for glufosinate resistance by postemergence treatment with 200-800 and 50-3200 g ae/ha glufosinate, respectively. Glyphosate resistance (in plants transformed with constructs that contain EPSPS) or another glyphosate tolerance gene can be assessed in the T1 generation by postemergence applications of glyphosate with a dose range from 280-2240 g ae/ha glyphosate. Analysis of protein expression will occur as described in below. Individual T0 plants were assessed for the presence of the coding region of the gene of interest (AAD-12 (v1) or PAT v6) and copy number. Determination of the inheritance of AAD-12 (v1) will be made using T1 and T2 progeny segregation with respect to herbicide tolerance as described in previous examples. […]

Setting [5] is: event D-2-14 (pDAB4464, CsVMV), spray POST over the top 560 g ae/ha 2,4-D.
Where [6] appears, read: event D-3-5 (pDAB4468, AtUbi10), spray POST over the top 560 g ae/ha 2,4-D.
Where [7] appears, read: event D-3-6 (pDAB4468, AtUbi10), spray POST over the top 560 g ae/ha 2,4-D.
The mark [8] stands for this setting: event D-3-9 (pDAB4468, AtUbi10), spray POST over the top 1120 g ae/ha 2,4-D.
Where [9] appears, read: event D-4-17 (pDAB4468, AtUbi10), spray POST over the top 1120 g ae/ha 2,4-D.
The mark [10] stands for this setting: event D-5-2 (pDAB4472, AtUbi3), spray POST over the top 560 g ae/ha 2,4-D.

As to `CNC.O=C(O)COc1ccc(Cl)cc1Cl` [2,4-D DMA], the “Average % Injury 16DAT” value in assay [1] stood at 21%. The “Average % injury 14 DAT” value in assay [2] (1120 g ae/ha) is given as 20%; in assay [2] (2240 g ae/ha), 35%; in assay [2] (4480 g ae/ha) it was 50%.

For `O=C(O)COc1ccc(Cl)cc1Cl` [2,4-D, 2,4-dichlorophenoxyacetic acid], the “lethal concentration of 2,4-D” value in assay [3] turned out to be 10 mg/L. Besides, the “sub lethal concentration of 2,4-D” value in assay [3] was found to be 8 mg/L. The “response to herbicide spray application” value in assay [4] (560 or 1120 g ae 2,4-D) is “clearly resistant”. Further, the “% injury 2 DAT” value in assay [4] (setting [5]) was 0%; in assay [4] (setting [6]), 0%; in assay [4] (setting [7]), 0%; in assay [4] (setting [8]) it was 0%; in assay [4] (setting [9]), 5%; in assay [4] (setting [10]), 5%. In addition, the “% injury 7 DAT” value in assay [4] (setting [5]), in assay [4] (setting [6]), in assay [4] (setting [7]), in assay [4] (setting [8]), in assay [4] (setting [9]) and in assay [4] (setting [10]) was 0% each time. The “% injury 14 DAT” value in assay [4] (setting [5]), in assay [4] (setting [6]), in assay [4] (setting [7]), in assay [4] (setting [8]), in assay [4] (setting [9]) and in assay [4] (setting [10]) was 0% throughout.
